Laboratory results from patent publication US20140261474A1, “METHODS FOR INHALATION OF SMOKE-FREE NICOTINE” (priority 2013, published 2014).
Read-outs that look alike come from different tables or passages of the source.

Experiments:
[1] = system: healthy volunteers (two ex-smokers and one non-smoker); conditions: in vivo
smokers = conditions: nicotine containing droplets delivered to the alveolar region; cited from earlier work
[2] = from cigarettes containing 6 to 11 mg of nicotine; cited from earlier work

Structure (SMILES)	Adverse effects ([1]; pH 2.9)	Comment (sensory perceptions and effects) ([1]; pH 3)	Adverse effects ([1]; pH 3.2)	Comment (sensory perceptions and effects) ([1]; pH 3.2)	Presence/Intensity of “buzz” ([1]; pH 3.2)	craving for cigarettes (smokers)	nicotine the smoker typically absorbs [2]
CN1CCCC1c1cccnc1.O=C(O)C(O)C(O)C(=O)O (stereo not shown) [Nicotine Bitartrate, Nicotine bitartrate]	Slight	No taste, buzz	Slight	No taste, buzz	None	–	–
CN1CCC[C@H]1c1cccnc1 [nicotine, S-3-(1-methyl-2-pyrrolidinyl)pyridine]	–	–	–	–	–	very rapid and sustained reduction of craving for cigarettes	1 to 3 mg
